{"source": "patent US10774039B2", "about": "“Cyclopropene amino acids and methods” (United Kingdom Research and Innovation, priority 2014, dated 2020)", "key": {"PylRS/tRNACUA pair [1]": {"test_system": "PylRS/tRNACUA pair", "assay": "Site-specific incorporation into sfGFP150TAG expressed in E. coli", "format": "cell-based, Methanosarcina barkeri", "procedure": "FIG. 2A: The PylRS/RNACUA pair directs efficient, site-specific incorporation of 3 into sfGFP bearing an amber stop codon at position 150.\nExpression and purification of sfGFP-3 from E. coli Electrocompetent E. coli DH10B cells were co-transformed with pBK-MbPylRS and psfGFP150TAG PyIT^14, 26. Transformed cells were recovered in S.O.B. (1 mL, supplemented with 0.2% glucose) for 1 h at 37° C. and used to inoculate LB containing 50 μg/mL kanamycin and 25 μg/mL tetracycline (LB-KT). The cells were incubated with shaking overnight at 37° C., 250 r.p.m. 1 mL of overnight culture was used to inoculate 100 mL of LB-KT½, the day culture was then incubated (37° C., 250 r.p.m). At O.D.600˜0.3, the culture was divided equally and supplemented with either 3 (1 mM) or H2O (500 μL) and incubated further (37° C., 250 r.p.m). At O.D.600˜0.6 protein expression was induced by the addition of arabinose (0.2%), after 4 h, the cells were harvested by centrifugation (4000 r.p.m, 20 min) and the pellet frozen until further use.\nThe frozen bacterial pellet was thawed on ice and resuspended in 2.5 mL lysis buffer (Bugbuster®, Novagen®, 50 μg/mL DNAse 1, Roche inhibitor cocktail and 20 mM imidazole). Cells were incubated (4° C., 30 minutes) then clarified by centrifugation (16000 g, 4° C., 30 minutes). The clarified lysates were transferred to fresh tubes and 100 μL Ni-NTA slurry added. The mixtures was incubated with agitation (4° C., 1 h) and then collected by centrifugation (1000 g, 4° C., 5 min). The beads were resuspended three times in 500 μL wash buffer (10 mM Tris-HCL, 40 mM imidazole, 200 mM NaCl, pH 8) and collected by centrifugation (1000 g, 4° C., 5 min). Finally, the beads were resuspended in 100 μL, elution buffer (10 mM Tris-HCL, 300 mM imidazole, 200 mM NaCl, pH 8), pelleted by centrifugation (1000 g, 4° C., 5 min) and the supernatant collected into fresh tubes. The elution was repeated three times with 100 μL of elution buffer. The purified proteins were analysed by 4-12% SDS-PAGE and LC-MS."}, "PylRS/tRNACUA pair [2]": {"target": "PylRS/tRNACUA pair (Methanosarcina mazei, UniProt Q8PWY1)", "sequence (Q8PWY1 whole entry, the tested form may be a part)": "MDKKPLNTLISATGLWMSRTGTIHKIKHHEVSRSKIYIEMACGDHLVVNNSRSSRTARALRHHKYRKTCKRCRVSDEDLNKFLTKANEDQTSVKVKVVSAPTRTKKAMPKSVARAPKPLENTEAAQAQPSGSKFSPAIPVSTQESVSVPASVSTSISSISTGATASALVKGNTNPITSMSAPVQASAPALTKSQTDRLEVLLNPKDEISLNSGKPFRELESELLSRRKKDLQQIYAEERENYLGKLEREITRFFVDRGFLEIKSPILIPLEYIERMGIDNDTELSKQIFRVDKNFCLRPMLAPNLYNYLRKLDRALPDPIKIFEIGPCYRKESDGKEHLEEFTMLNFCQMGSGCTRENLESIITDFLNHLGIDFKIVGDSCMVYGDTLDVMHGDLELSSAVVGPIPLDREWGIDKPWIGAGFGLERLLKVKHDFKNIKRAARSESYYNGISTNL", "assay": "Dual luciferase reporter assay on ovary extract of flies fed amino acid", "format": "in vivo, D. melanogaster", "parameters": "expressed in transfected cells; host or cells: transgenic Drosophila melanogaster, ovaries (UAS-PylRS driven by nos-vp16-GAL4)", "conditions": "flies fed 10 mM amino acid", "procedure": "Dual luciferase assay on ovary extract from 10 female flies expressing Triple-Rep-L in the presence or absence of 10 mM 1 or 10 mM 3. […] The error bars represent the standard deviation of 3 technical replicates from a single biological replicate. FIG. 10B: Site-specific incorporation of 3 (or 1) into GFP_TAG_mCherry-HA in flies expressing PylRS/PyltRNACUA. The full-length protein resulting from unnatural amino acid incorporation is detected by anti-HA western blot. FIG. 10C: Specific labelling of encoded 3 with tetrazine probes. Flies were fed with no amino acid, amino acid 1 (500 flies) or amino acid 3 (100 flies). […] The full-length protein containing the unnatural amino acid was immunoprecipitated from lysed ovaries with anti-GFP beads. The beads were labelled (4g, 4 μM, 200 μL, PBS, RT, 2 h) washed.\nTransgenic lines were created by P element insertion using a Drosophila embryo injection service (BestGene Inc.). Lines were generated using the following plasmids: pFT58 (Ala), pFT60 (Ser), pFT62 (Leu) and pFT63 (Met). nos-Gal4-VP16 (Bloomington 4937) and MS1096-Gal4 (Bloomington 8860) were used as Gal4 drivers. All flies were grown at 25° C. on standard Iberian medium. Flies were fed unnatural amino acids by mixing dried yeast with the appropriate concentration of amino acid (usually 10 mM) diluted in dH2O to make a paste. Ovaries were prepared from females that were grown on Iberian fly food supplemented with a yeast paste with or without the amino acid for a minimum of 48 hours. For proteome labelling experiments transgenic male flies of constructs FT58, FT60, FT62 and FT63 were crossed with nos-vp16-GAL4 virgins to generate FT58/nos-vp16-GAL4, FT60/nos-vp16-GAL4, FT62/nos-vp16-GAL4 and FT63/nos-vp16-GAL4 respectively.\nOvaries from 10 females of Triple Rep-L flies recombined with nos-Gal4-VP16 fed 3, 1 or no amino acid were dissected in 100 μl 1× Passive lysis buffer and processed for luciferase assays as previously described^20."}}}
{"smiles": "CC1=CC1COC(=O)NCCCC[C@H](N)C(=O)O", "note": "(stereo partly drawn) [amino acid 3, N^ε-[((2-methylcycloprop-2-en-1-yl)methoxy)carbonyl]-L-lysine]", "values": [{"measurement": "yield of protein", "setting": "PylRS/tRNACUA pair [1]; SfGFP gene with amber codon at position 150, E. coli, PylRS/tRNACUA pair", "result": "8 mg per litre of culture"}, {"measurement": "efficiency of site-specific incorporation into sfGFP", "setting": "PylRS/tRNACUA pair [1]; amber stop codon at position 150, E. coli, compared with 1", "result": "more efficient than 1"}, {"measurement": "dual luciferase signal compared with 1", "setting": "PylRS/tRNACUA pair [2]", "result": "larger"}, {"measurement": "luciferase signal dependent on amino acid addition", "setting": "PylRS/tRNACUA pair [2]", "result": "strong luciferase signal"}]}
